Results: US20050143328A1, “COMPOSITION AND TREATMENT FOR ENVELOPE VIRUS INFECTIONS” (priority 2003, published 2005)

Tested on: herpes simplex I
Test: Topical treatment of herpes simplex I / cold sores with a neomycin B composition
Assay type: in vivo
Details: between 3.5 and 5 mg/g neomycin B combined with pramoxine hydrochloride in petroleum jelly
Source text: Example 2: This embodiment of the invention is a compound similar to that disclosed in Example 1, except that it is specifically targeted to the treatment of herpes simplex I and the prevention of physiological manifestations of herpes simplex I (e.g., cold sores). […] However, for longer-term use or storage, preservatives like methylparaben are utilized to avoid contamination, and the ingredients preferably comprise an emulsion or suspension to distribute evenly the physiologically active ingredients.

## NC[C@@H]1O[C@H](O[C@H]2[C@@H](O)[C@H](O[C@@H]3[C@@H](O)[C@H](N)C[C@H](N)[C@H]3O[C@H]3O[C@H](CN)[C@@H](O)[C@H](O)[C@H]3N)O[C@@H]2CO)[C@H](N)[C@@H](O)[C@@H]1O [neomycin B]
  outcome of the experiment (treatment of herpes simplex I and prevention of its manifestations, e.g. cold sores): ultimately effective
